Experimental data: ChEMBL document CHEMBL2074466, “Breast cancer resistance protein exports sulfated estrogens but not free estrogens” (Mol Pharmacol, 2003)

Experiments:
BCRP (ABCG2) [1] = molecular target: T1, BCRP (ABCG2) (Homo sapiens, UniProt Q9UNQ0); test: TP_TRANSPORTER: inhibition of E1S uptake by 17beta-estradiol 3-sulfate at a concentration of 30uM in membrane vesicle from BCRP-expressing K562 cells; type: functional, cell membranes; parameters: scale not given: the % may be the effect or the level left; settings: membrane vesicles from BCRP-expressing K562 cells, probe E1S, read-out: Activity
T1 sequence (Q9UNQ0 whole entry): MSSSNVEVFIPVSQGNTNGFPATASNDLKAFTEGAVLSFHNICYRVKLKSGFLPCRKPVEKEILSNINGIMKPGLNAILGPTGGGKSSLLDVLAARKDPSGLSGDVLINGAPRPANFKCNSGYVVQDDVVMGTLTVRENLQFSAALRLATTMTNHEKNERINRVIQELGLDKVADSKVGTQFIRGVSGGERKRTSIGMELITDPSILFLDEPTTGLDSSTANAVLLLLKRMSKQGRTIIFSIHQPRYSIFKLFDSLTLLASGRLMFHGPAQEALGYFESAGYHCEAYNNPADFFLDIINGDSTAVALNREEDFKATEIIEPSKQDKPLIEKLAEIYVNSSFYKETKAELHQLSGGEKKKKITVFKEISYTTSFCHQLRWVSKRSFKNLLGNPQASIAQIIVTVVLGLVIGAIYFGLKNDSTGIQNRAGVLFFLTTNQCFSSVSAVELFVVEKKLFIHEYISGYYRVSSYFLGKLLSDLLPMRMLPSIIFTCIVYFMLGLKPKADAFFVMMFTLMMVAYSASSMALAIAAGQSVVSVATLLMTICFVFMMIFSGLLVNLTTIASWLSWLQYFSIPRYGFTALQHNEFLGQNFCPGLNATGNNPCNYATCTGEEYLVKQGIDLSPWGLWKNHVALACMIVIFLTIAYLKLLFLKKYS

[2] = molecular target: T2, Broad substrate specificity ATP-binding cassette transporter ABCG2 (Homo sapiens, UniProt Q9UNQ0); test: TP_TRANSPORTER: efflux in BCRP-expressing LLC-PK1 cells; type: functional, cell-based; settings: pig
T2 sequence (Q9UNQ0 whole entry): T1 sequence (Q9UNQ0 whole entry)

BCRP (ABCG2) [3] = molecular target: T1, BCRP (ABCG2); test: TP_TRANSPORTER: inhibition of E1S uptake by Taurolithocholate-3-sulfate at a concentration of 30uM in membrane vesicle from BCRP-expressing K562 cells; type: functional, cell membranes; parameters: scale not given: the % may be the effect or the level left; settings: membrane vesicles from BCRP-expressing K562 cells, probe E1S, read-out: Activity
[4] = molecular target: T2, Broad substrate specificity ATP-binding cassette transporter ABCG2; test: TP_TRANSPORTER: drug resistance in BCRP-expressing LLC-PK1 cells; type: functional, cell-based; settings: pig
[5] = molecular target: T2, Broad substrate specificity ATP-binding cassette transporter ABCG2; test: TP_TRANSPORTER: inhibition of E1S uptake by 7-ethyl-10-hydroxycamptothecin at a concentration of 20uM in membrane vesicle from BCRP-expressing K562 cells; type: functional, cell membranes; parameters: scale not given: the % may be the effect or the level left; settings: k562, 20 µM
BCRP (ABCG2) [6] = molecular target: T1, BCRP (ABCG2); test: TP_TRANSPORTER: inhibition of E1S uptake by 17beta-estradiol at a concentration of 30uM in membrane vesicle from BCRP-expressing K562 cells; type: functional, cell membranes; parameters: scale not given: the % may be the effect or the level left; settings: membrane vesicles from BCRP-expressing K562 cells, probe E1S, read-out: Activity
[7] = molecular target: T2, Broad substrate specificity ATP-binding cassette transporter ABCG2; test: TP_TRANSPORTER: uptake in BCRP-expressing LLC-PK1 cells; type: functional, cell-based; settings: pig
BCRP (ABCG2) [8] = molecular target: T1, BCRP (ABCG2); test: TP_TRANSPORTER: inhibition of E1S uptake by Estrone at a concentration of 30uM in membrane vesicle from BCRP-expressing K562 cells; type: functional, cell membranes; parameters: scale not given: the % may be the effect or the level left; settings: membrane vesicles from BCRP-expressing K562 cells, probe E1S, read-out: Activity
[9] = molecular target: T2, Broad substrate specificity ATP-binding cassette transporter ABCG2; test: TP_TRANSPORTER: inhibition of E1S uptake by Cortisol at a concentration of 30uM in membrane vesicle from BCRP-expressing K562 cells; type: functional, cell membranes; parameters: scale not given: the % may be the effect or the level left; settings: k562, 30 µM
BCRP (ABCG2) [10] = molecular target: T1, BCRP (ABCG2); test: TP_TRANSPORTER: inhibition of E1S uptake by Dehydroepiandrosterone-3-sulfate at a concentration of 30uM in membrane vesicle from BCRP-expressing K562 cells; type: functional, cell membranes; parameters: scale not given: the % may be the effect or the level left; settings: membrane vesicles from BCRP-expressing K562 cells, probe E1S, read-out: Activity
BCRP (ABCG2) [11] = molecular target: T1, BCRP (ABCG2); test: TP_TRANSPORTER: inhibition of E1S uptake by Taurolithocholate at a concentration of 30uM in membrane vesicle from BCRP-expressing K562 cells; type: functional, cell membranes; parameters: scale not given: the % may be the effect or the level left; settings: membrane vesicles from BCRP-expressing K562 cells, probe E1S, read-out: Activity
[12] = substrate: C[C@]12CC[C@@H]3c4ccc(OS(=O)(=O)O)cc4CC[C@H]3[C@@H]1CCC2=O; test: TP_TRANSPORTER: uptake in membrane vesicle from BCRP-expressing K562 cells; type: functional, cell membranes

C[C@]12CC[C@@H]3c4ccc(OS(=O)(=O)O)cc4CC[C@H]3[C@@H]1CC[C@@H]2O
activity at 30 µM (BCRP (ABCG2) [1]): 50%
Activity [2]: substrate []

C[C@H](CCC(=O)NCCS(=O)(=O)O)C1CC[C@H]2[C@@H]3CC[C@@H]4C[C@H](OS(=O)(=O)O)CC[C@]4(C)[C@H]3CC[C@]12C (some centres undefined)
activity at 30 µM (BCRP (ABCG2) [3]): 30%

CCc1c2c(nc3ccc(O)cc13)-c1cc3c(c(=O)n1C2)COC(=O)[C@]3(O)CC [7-ETHYL-10-HYDROXYCAMPTOTHECIN]
Activity [4]: substrate []
Activity [5]: 40%

C[C@]12CC[C@@H]3c4ccc(O)cc4CC[C@H]3[C@@H]1CC[C@@H]2O [ESTRADIOL]
activity at 30 µM (BCRP (ABCG2) [6]): 50%

C[C@]12CC[C@@H]3c4ccc(OS(=O)(=O)O)cc4CC[C@H]3[C@@H]1CCC2=O [ESTRONE SULFURIC ACID]
Activity [7]: substrate []

C[C@]12CC[C@@H]3c4ccc(O)cc4CC[C@H]3[C@@H]1CCC2=O [ESTRONE]
activity at 30 µM (BCRP (ABCG2) [8]): 70%

COc1ccc2c3c([nH]c2c1)[C@H](C=C(C)C)N1C(=O)[C@@H]2CCCN2C(=O)[C@@H]1C3 [FUMITREMORGIN]
Activity [4]: substrate []

C[C@]12CCC(=O)C=C1CC[C@@H]1[C@@H]2[C@@H](O)C[C@@]2(C)[C@H]1CC[C@]2(O)C(=O)CO [HYDROCORTISONE]
Activity [9]: 70%

O=C1c2c(O)ccc(O)c2C(=O)c2c(NCCNCCO)ccc(NCCNCCO)c21 [MITOXANTRONE]
Activity [4]: substrate []

C[C@]12CC[C@H](OS(=O)(=O)O)CC1=CC[C@@H]1[C@@H]2CC[C@]2(C)C(=O)CC[C@@H]12 [PRASTERONE SULFURIC ACID]
activity at 30 µM (BCRP (ABCG2) [10]): 50%

C[C@H](CCC(=O)NCCS(=O)(=O)O)[C@H]1CC[C@H]2[C@@H]3CC[C@@H]4C[C@H](O)CC[C@]4(C)[C@H]3CC[C@]12C [TAUROLITHOCHOLIC ACID]
activity at 30 µM (BCRP (ABCG2) [11]): 20%

B1: Broad substrate specificity ATP-binding cassette transporter ABCG2 (Homo sapiens) (protein)
chain: T1 sequence (Q9UNQ0 whole entry)
Km [12]: 6.8 µM
